Experimental data as given in patent US11896010B2, “Uracil compound and use thereof” (Sumitomo Chemical Company, Limited, priority 2018, dated 2024).

Legend:
Type in all cases: in vivo
Amaranthus retroflexus = experiment: Test Example 1: post-emergence foliage spray pot test in greenhouse, weed control efficacy; settings: for weed control efficacy score (0 to 100), Amaranthus retroflexus: foliar spray 204 L/ha on plants grown 15 days, evaluated after 11 days, 0 = same as untreated, 100 = completely dead; for weed control efficacies against Amaranthus retroflexus (in words): summary of the test at 80 and 40 gai/ha
Description: (§1) Next, weed control efficacies of the Compound A and safety (phytotoxicity) of the Compound A against a useful plant are shown by a Test Example.
(§2) Here the “untreated group” represents a group where the same treatment procedure as that of the treated group except not using the Compound A is done.
(§3) A plastic pot was filled with soil, thereto Amaranthus retroflexus, Ipomoea hederacea, and corn were seeded, and they were grown in a greenhouse for 15 days. Separately, a prescribed amount of a formulation prepared according to the process described in the Formulation Example 1 was diluted with water comprising 1% of Agridex (registered trademark) to obtain a diluent. Said diluent was homogeneously sprayed from above of said plants in a ratio of 204 L/ha such that the applied amount of the Compound A was 80 gai/ha or 40 gai/ha. Then, said plants were grown in a greenhouse for 11 days and evaluated according to the above criteria.
(§4) The Compound B was used instead of the Compound A to carry out the same test as the Test Example 1.

Ipomoea hederacea = experiment: as above; settings: for weed control efficacy score (0 to 100), Ipomoea hederacea: foliar spray 204 L/ha on plants grown 15 days, evaluated after 11 days, 0 = same as untreated, 100 = completely dead; for weed control efficacies against Ipomoea hederacea (in words): summary of the test at 80 and 40 gai/ha
Description: as §1, §2, §3, §4

corn = experiment: Test Example 1: post-emergence foliage spray pot test in greenhouse, safety (phytotoxicity) against a useful plant; settings: for phytotoxicity score (0 to 100), corn: foliar spray 204 L/ha on plants grown 15 days, evaluated after 11 days, 0 = same as untreated, 100 = completely dead
Description: as §1, §2, §3, §4

CCOC(=O)COc1ncccc1Oc1cc(-n2c(=O)cc(C(F)(F)F)n(C)c2=O)c(F)cc1Cl [Compound B]
weed control efficacy score (0 to 100), Amaranthus retroflexus (Amaranthus retroflexus; applied amount 40 gai/ha): 100 | weed control efficacy score (0 to 100), Amaranthus retroflexus (Amaranthus retroflexus; applied amount 80 gai/ha): 100 | weed control efficacies against Amaranthus retroflexus (in words) (Amaranthus retroflexus): high weed control efficacies | weed control efficacy score (0 to 100), Ipomoea hederacea (Ipomoea hederacea; applied amount 40 gai/ha): 100 | weed control efficacy score (0 to 100), Ipomoea hederacea (Ipomoea hederacea; applied amount 80 gai/ha): 100 | weed control efficacies against Ipomoea hederacea (in words) (Ipomoea hederacea): high weed control efficacies | phytotoxicity score (0 to 100), corn (corn; applied amount 40 gai/ha): 100 | phytotoxicity score (0 to 100), corn (corn; applied amount 80 gai/ha): 100 | phytotoxicity against corn (in words) (corn; summary of the test at 80 and 40 gai/ha): high phytotoxicity

CCOC(=O)COc1nc(-n2c(=O)cc(C(F)(F)F)n(C)c2=O)ccc1Oc1cc(-n2c(=O)cc(C(F)(F)F)n(C)c2=O)c(F)cc1Cl [Compound A]
weed control efficacy score (0 to 100), Amaranthus retroflexus (Amaranthus retroflexus; applied amount 40 gai/ha): 100 | weed control efficacy score (0 to 100), Amaranthus retroflexus (Amaranthus retroflexus; applied amount 80 gai/ha): 100 | weed control efficacies against Amaranthus retroflexus (in words) (Amaranthus retroflexus): high weed control efficacies | weed control efficacy score (0 to 100), Ipomoea hederacea (Ipomoea hederacea; applied amount 40 gai/ha): 95 | weed control efficacy score (0 to 100), Ipomoea hederacea (Ipomoea hederacea; applied amount 80 gai/ha): 100 | weed control efficacies against Ipomoea hederacea (in words) (Ipomoea hederacea): high weed control efficacies | phytotoxicity against corn (in words) (corn; in vivo): low phytotoxicity
